# Patent publication US7718808B2, “Thiazole derivatives” (Kyowa Hakko Kirin Co., Ltd., priority 2003, dated 2010)
row,Structure (SMILES),melting point
1,"O=C(Nc1nc(-c2ccoc2)c(C(=O)C2CCOCC2)s1)c1ccnc(Cl)c1 [Compound 616, 2-Chloro-N-[4-(3-furyl)-5-(tetrahydropyran-4-ylcarbonyl)thiazol-2-yl]pyridine-4-carboxamide]",202 to 204 °C
2,"O=C(Nc1nc(-c2ccco2)c(C(=O)C2CCOCC2)s1)c1cccc(Cl)c1 [Compound 470, 3-Chloro-N-[4-(2-furyl)-5-(tetrahydropyran-4-ylcarbonyl)thiazol-2-yl]benzamide]",210 to 212 °C
3,"O=C(Nc1nc(-c2ccco2)c(C(=O)c2ccccn2)s1)c1ccnc(N2CCCCC2)c1 [Compound 218, N-[4-(2-Furyl)-5-(pyridin-2-ylcarbonyl)thiazol-2-yl]-2-piperidinopyridine-4-carboxamide]",136 to 141 °C
4,"O=C(Nc1nc(-c2ccco2)c(C(=O)c2ccn(Cc3ccccc3)c2)s1)c1ccncc1 [Compound 356, N-[5-(1-Benzylpyrrol-3-ylcarbonyl)-4-(2-furyl)thiazol-2-yl]pyridine-4-carboxamide]",175 to 178 °C
5,"O=C(Nc1nc(-c2ccco2)c(C(=O)C2CCOCC2)s1)c1ccc(N2CCOCC2)nc1 [Compound 503, N-[4-(2-Furyl)-5-(tetrahydropyran-4-ylcarbonyl)thiazol-2-yl]-2-morpholinopyridine-5-carboxamide]",166 to 170 °C
6,"O=C(Nc1nc(-c2ccco2)c(-c2ccncc2)s1)c1ccnc(CN2CCC(O)CC2)c1 [Compound 111, N-[4-(2-Furyl)-5-(4-pyridyl)thiazol-2-yl]-2-(4-hydroxypiperidinomethyl)pyridine-4-carboxamide]",203 to 208 °C
7,"O=C(Nc1nc(-c2ccco2)c(C(=O)C2CCOCC2)s1)c1ccsc1 [Compound 518, N-[4-(2-Furyl)-5-(tetrahydropyran-4-ylcarbonyl)thiazol-2-yl]thiophene-3-carboxamide]",227 to 229 °C
8,"O=C(CNC12CC3CC(CC(O)(C3)C1)C2)Nc1nc(-c2ccco2)c(C(=O)C2CCOCC2)s1 [Compound 578, N-[4-(2-Furyl)-5-(tetrahydropyran-4-ylcarbonyl)thiazol-2-yl]-2-(3-hydroxyadamantan-1-ylamino)acetamide]",176 to 178 °C
9,"CC(C)(C)C(=O)Nc1nc(-c2ccco2)c(C(=O)c2ccccn2)s1 [Compound 190, N-[4-(2-Furyl)-5-(pyridin-2-ylcarbonyl)thiazol-2-yl]-2,2-dimethylpropanamide]",186 to 187 °C
10,"O=C(Nc1nc(-c2ccco2)c(C(=O)c2ccccn2)s1)OC1CCC1 [Compound 251, Cyclobutyl N-[4-(2-furyl)-5-(pyridin-2-ylcarbonyl)thiazol-2-yl]carbamate]",152 to 153 °C
11,"O=C(c1cccnc1)c1sc(NC(=O)C2CC2)nc1-c1ccco1 [Compound 305, N-[4-(2-Furyl)-5-(pyridin-3-ylcarbonyl)thiazol-2-yl]cyclopropanecarboxamide]",231 to 233 °C
12,"CCn1c(-c2sc(NC(=O)c3ccncc3)nc2-c2ccco2)cccc1=O [Compound 129, N-[5-(1-Ethyl-6-oxo-1,6-dihydropyridin-2-yl)-4-(2-furyl)thiazol-2-yl]pyridine-4-carboxamide]",> 300 °C
13,"O=C(Nc1nc(-c2ccco2)c(-c2ccncc2)s1)c1cc[nH]c(=O)c1 [Compound 112, N-[4-(2-Furyl)-5-(4-pyridyl)thiazol-2-yl]-2-oxo-1,2-dihydropyridine-4-carboxamide]",277 to 281 °C
14,"Cc1cc(C(=O)Nc2nc(-c3ccoc3)c(C(=O)C3CCOCC3)s2)ccn1 [Compound 615, N-[4-(3-Furyl)-5-(tetrahydropyran-4-ylcarbonyl)thiazol-2-yl]-2-methylpyridine-4-carboxamide]",202 to 204 °C
15,"N#Cc1cccc(C(=O)Nc2nc(-c3ccco3)c(C(=O)C3CCOCC3)s2)c1 [Compound 473, 3-Cyano-N-[4-(2-furyl)-5-(tetrahydropyran-4-ylcarbonyl)thiazol-2-yl]benzamide]",257 to 260 °C
16,"O=C(Nc1nc(-c2ccco2)c(C(=O)C2CCC2)s1)C1CC1 [Compound 427, N-[5-(Cyclobutylcarbonyl)-4-(2-furyl)thiazol-2-yl]cyclopropanecarboxamide]",200 to 205 °C
17,"CCC(=O)c1sc(NC(=O)c2ccncc2)nc1-c1ccco1 [Compound 381, N-[4-(2-Furyl)-5-propionylthiazol-2-yl]pyridine-4-carboxamide]",225 to 240 °C (dec.)
18,"Cc1ncccc1C(=O)Nc1nc(-c2ccco2)c(C(=O)c2ccccn2)s1 [Compound 221, N-[4-(2-Furyl)-5-(pyridin-2-ylcarbonyl)thiazol-2-yl]-2-methylpyridine-3-carboxamide]",186 to 187 °C
19,"O=C(Nc1nc(-c2ccco2)c(C(=O)c2cccnc2)s1)c1ccco1 [Compound 307, N-[4-(2-Furyl)-5-(pyridin-3-ylcarbonyl)thiazol-2-yl]furan-2-carboxamide]",234 to 236 °C
20,"COC1CCC(C(=O)c2sc(NC(=O)c3ccc(C#N)cc3)nc2-c2ccco2)CC1 (stereo not shown) [Compound 443, 4-Cyano-N-[4-(2-furyl)-5-(4-methoxycyclohexylcarbonyl)thiazol-2-yl]benzamide]",105 to 109 °C
21,"O=C1CCC(C(=O)c2sc(NC(=O)c3ccco3)nc2-c2ccco2)CC1 [Compound 450, N-[4-(2-Furyl)-5-(4-oxocyclohexylcarbonyl)thiazol-2-yl]furan-2-carboxamide]",232 to 235 °C
22,"O=C(Nc1nc(-c2ccco2)c(C(=O)C2CCOCC2)s1)C1CCOC1 (stereo not shown) [Compound 524, N-[4-(2-Furyl)-5-(tetrahydropyran-4-ylcarbonyl)thiazol-2-yl]tetrahydrofuran-3-carboxamide]",164 to 166 °C
23,"COc1ccccc1C(=O)Nc1nc(-c2ccco2)c(C(=O)c2ccccn2)s1 [Compound 200, N-[4-(2-Furyl)-5-(pyridin-2-ylcarbonyl)thiazol-2-yl]-2-methoxybenzamide]",205 to 208 °C
24,"O=C(Nc1nc(-c2ccco2)c(C(=O)c2cccnn2)s1)c1ccncc1 [Compound 376, N-[4-(2-Furyl)-5-(pyridazin-3-ylcarbonyl)thiazol-2-yl]pyridine-4-carboxamide]",280 to 281 °C
25,"O=C(Nc1nc(-c2ccoc2)c(C(=O)C2CCOCC2)s1)C1CC1 [Compound 611, N-[4-(3-Furyl)-5-(tetrahydropyran-4-ylcarbonyl)thiazol-2-yl]cyclopropanecarboxamide]",231 to 232 °C
26,"O=C(Nc1nc(-c2ccco2)c(C(=O)c2ccccn2)s1)OC1CCOCC1 [Compound 253, 4-Tetrahydropyranyl N-[4-(2-furyl)-5-(pyridin-2-ylcarbonyl)thiazol-2-yl]carbamate]",144 to 145 °C
27,"Cc1ccc(C(=O)c2sc(NC(=O)c3ccncc3)nc2-c2ccco2)o1 [Compound 343, N-[4-(2-Furyl)-5-(5-methylfuran-2-ylcarbonyl)thiazol-2-yl]pyridine-4-carboxamide]",185 to 189 °C
28,"O=C(CN1CCSCC1)Nc1nc(-c2ccco2)c(C(=O)c2ccccn2)s1 [Compound 282, N-[4-(2-Furyl)-5-(pyridin-2-ylcarbonyl)thiazol-2-yl]-2-thiomorpholinoacetamide]",148 to 149 °C
